Experimental data: patent publication US12060400B2, “Peptides for use in immunotherapy against cancers” (Immatics Biotechnologies GmbH, priority 2018, dated 2024)

Tested on: HLA-A*24
Experiment: MHC binding assay: UV-ligand exchange with beta2m ELISA (peptide exchange yield)
Set-up: species or system human
Settings: Table 11, binding to HLA-A*24, UV-ligand exchange
Summary of the method: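 Peptide-MHC complexes generated by UV-induced exchange of a photocleavable ligand with the test peptide; exchange yield quantified by streptavidin-capture ELISA detecting β2m (HRP anti-β2m, TMB, A450). Samples diluted 100-fold, with refolded HLA-A*02:01/MLA-001 monomers (15-500 ng/ml) as standards.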

Row | Substance | Peptide exchange (MHC class I binding score, peptide exchange yield)
1 | 34 (LIFALALAAF; listed as Homo sapiens) [compound 34] | + (>10% = +)
2 | 192 (CYSFIHLSF; listed as Homo sapiens) [compound 192] | ++++ (>75% = ++++)
3 | 335 (RYQSVIYPF; listed as Homo sapiens) [compound 335] | ++++ (>75% = ++++)
4 | 49 (QYLSIAERAEF; listed as Homo sapiens) [compound 49] | ++++ (>75% = ++++)
5 | 222 (HYHAESFLF; listed as Homo sapiens) [compound 222] | ++++ (>75% = ++++)
6 | 331 (EYIDEFQSL; listed as Homo sapiens) [compound 331] | ++++ (>75% = ++++)
7 | 373 (IWDALERTF; listed as Homo sapiens) [compound 373] | ++ (>20% = ++)
8 | 71 (RYLPNPSLNAF; listed as Homo sapiens) [compound 71] | ++++ (>75% = ++++)
9 | 92 (RALTETIMF; listed as Homo sapiens) [compound 92] | ++ (>20% = ++)
10 | 272 (IYFNHRCF; listed as Homo sapiens) [compound 272] | +++ (>50 = +++)
11 | 302 (YQGSLEVLF; listed as Homo sapiens) [compound 302] | ++ (>20% = ++)
12 | 11 (RAMCAMMSF; listed as Homo sapiens) [compound 11] | ++ (>20% = ++)
13 | 178 (AYPQIRCTW; listed as Homo sapiens) [compound 178] | ++++ (>75% = ++++)
14 | 9 (TYINSLAIL; listed as Homo sapiens) [compound 9] | ++++ (>75% = ++++)
15 | 215 (KASKITFHW; listed as Homo sapiens) [compound 215] | ++ (>20% = ++)
16 | 120 (VYAFMNENF; listed as Homo sapiens) [compound 120] | ++++ (>75% = ++++)
17 | 186 (RRVTWNVLF; listed as Homo sapiens) [compound 186] | ++ (>20% = ++)
18 | 282 (ASYQQSTSSFF; listed as Homo sapiens) [compound 282] | ++ (>20% = ++)
19 | 361 (KQPANFIVL; listed as Homo sapiens) [compound 361] | ++ (>20% = ++)
20 | 153 (AWSPPATLF; listed as Homo sapiens) [compound 153] | ++++ (>75% = ++++)
21 | 339 (KQVIGIHTF; listed as Homo sapiens) [compound 339] | + (>10% = +)
22 | 289 (RTLNEIYHW; listed as Homo sapiens) [compound 289] | ++ (>20% = ++)
23 | 100 (KVWSDVTPLTF; listed as Homo sapiens) [compound 100] | +++ (>50 = +++)

Row | Substance | Peptide exchange (MHC class I binding score, peptide exchange yield)
24 | 300 (LFALPDFIF; listed as Homo sapiens) [compound 300] | ++ (>20% = ++)
25 | 84 (YTIERYFTL; listed as Homo sapiens) [compound 84] | ++++ (>75% = ++++)
26 | 375 (YYAADQWVF; listed as Homo sapiens) [compound 375] | ++++ (>75% = ++++)
27 | 62 (VYIVPVIVL; listed as Homo sapiens) [compound 62] | ++++ (>75% = ++++)
28 | 108 (WFFQGAQYW; listed as Homo sapiens) [compound 108] | ++ (>20% = ++)
29 | 316 (IWAERIMF; listed as Homo sapiens) [compound 316] | +++ (>50 = +++)
30 | 249 (HQYGGAYNRV; listed as Homo sapiens) [compound 249] | ++ (>20% = ++)
31 | 225 (ISMSATEFLL; listed as Homo sapiens) [compound 225] | +++ (>50 = +++)
32 | 223 (KLRALSILF; listed as Homo sapiens) [compound 223] | + (>10% = +)
33 | 327 (KWKPSPLLF; listed as Homo sapiens) [compound 327] | ++++ (>75% = ++++)
34 | 303 (RFLDRGWGF; listed as Homo sapiens) [compound 303] | ++++ (>75% = ++++)
35 | 238 (YTCSRAVSLF; listed as Homo sapiens) [compound 238] | ++ (>20% = ++)
36 | 27 (LSCTATPLF; listed as Homo sapiens) [compound 27] | +++ (>50 = +++)
37 | 246 (KIYTTVLFANI; listed as Homo sapiens) [compound 246] | ++++ (>75% = ++++)
38 | 99 (ASAALTGFTF; listed as Homo sapiens) [compound 99] | ++ (>20% = ++)
39 | 145 (MYTIVTPML; listed as Homo sapiens) [compound 145] | ++++ (>75% = ++++)
40 | 183 (YQVAKGMEF; listed as Homo sapiens) [compound 183] | + (>10% = +)
41 | 216 (RHYHSIEVF; listed as Homo sapiens) [compound 216] | ++ (>20% = ++)
42 | 275 (PEYSLPVLTF; listed as Homo sapiens) [compound 275] | ++++ (>75% = ++++)
43 | 193 (KYKPVALQCIA; listed as Homo sapiens) [compound 193] | ++ (>20% = ++)
44 | 48 (AWSPPATLFLF; listed as Homo sapiens) [compound 48] | ++++ (>75% = ++++)
45 | 267 (QHMLPFWTDL; listed as Homo sapiens) [compound 267] | +++ (>50 = +++)
46 | 196 (VGRSPVFLF; listed as Homo sapiens) [compound 196] | ++ (>20% = ++)

Row | Substance | Peptide exchange (MHC class I binding score, peptide exchange yield)
47 | 170 (IFIPATILL; listed as Homo sapiens) [compound 170] | ++++ (>75% = ++++)
48 | 353 (AAFPGAFSF; listed as Homo sapiens) [compound 353] | ++ (>20% = ++)
49 | 350 (VYKWTEEKF; listed as Homo sapiens) [compound 350] | ++++ (>75% = ++++)
50 | 51 (YFDENIQKF; listed as Homo sapiens) [compound 51] | +++ (>50 = +++)
51 | 50 (RYFDENIQKF; listed as Homo sapiens) [compound 50] | ++++ (>75% = ++++)
52 | 45 (YGQSKPWTF; listed as Homo sapiens) [compound 45] | ++ (>20% = ++)
53 | 211 (MLYFAPDLIL; listed as Homo sapiens) [compound 211] | ++ (>20% = ++)
54 | 368 (AYFVAMHLF; listed as Homo sapiens) [compound 368] | ++++ (>75% = ++++)
55 | 172 (RYFIAAEKILW; listed as Homo sapiens) [compound 172] | ++++ (>75% = ++++)
56 | 362 (NYMDTDNLMF; listed as Homo sapiens) [compound 362] | ++++ (>75% = ++++)
57 | 294 (KMGRIVDYF; listed as Homo sapiens) [compound 294] | ++++ (>75% = ++++)
58 | 244 (TYIDTRTVFL; listed as Homo sapiens) [compound 244] | ++++ (>75% = ++++)
59 | 354 (QYIPTFHVY; listed as Homo sapiens) [compound 354] | ++++ (>75% = ++++)
60 | 273 (VTMYLPLLL; listed as Homo sapiens) [compound 273] | ++ (>20% = ++)
61 | 326 (VHMKDFFYF; listed as Homo sapiens) [compound 326] | ++++ (>75% = ++++)
62 | 175 (SYFEYRRLL; listed as Homo sapiens) [compound 175] | ++ (>20% = ++)
63 | 134 (IYSSQLPSF; listed as Homo sapiens) [compound 134] | ++++ (>75% = ++++)
64 | 171 (LYTVPFNLI; listed as Homo sapiens) [compound 171] | ++++ (>75% = ++++)
65 | 243 (ALFPMGPLTF; listed as Homo sapiens) [compound 243] | ++ (>20% = ++)
66 | 2 (LYAPTILLW; listed as Homo sapiens) [compound 2] | ++++ (>75% = ++++)
67 | 154 (DYSKQALSL; listed as Homo sapiens) [compound 154] | ++ (>20% = ++)
68 | 259 (FFLFIPFF; listed as Homo sapiens) [compound 259] | ++ (>20% = ++)
69 | 285 (YFLPGPHYF; listed as Homo sapiens) [compound 285] | ++++ (>75% = ++++)
